Experimental data published in ChEMBL document CHEMBL1143001, “Designing active template molecules by combining computational de novo design and human chemist's expertise” (J Med Chem, 2007).
The source made the active and inactive calls. The rule behind the calls is not given here.

Key:
[1] = molecular target: Phosphodiesterase 3 (Homo sapiens) (UniProt Q14432+Q13370); test: Inhibition of PDE3 expressed in human platelets at 10 uM
[2] = molecular target: cGMP-specific 3',5'-cyclic phosphodiesterase (Homo sapiens) (UniProt O76074); test: Inhibition of PDE5 in human platelet cells at 10 uM; format: cell-based
Rattus norvegicus [3] = organism: Rattus norvegicus; test: Inhibition of rat brain adenylyl cyclase at 10 uM
Bos taurus [4] = organism: Bos taurus; test: Inhibition of bovine lung guanylyl cyclase at 10 uM
Sus scrofa = organism: Sus scrofa; test: Inhibition of pig liver catechol-O-methyl transferase at 10 uM
[5] = molecular target: 4-aminobutyrate aminotransferase, mitochondrial (Rattus norvegicus) (UniProt P50554); test: Inhibition of rat brain GABA transaminase at 10 uM
[6] = molecular target: T1, Amine oxidase [flavin-containing] B (Homo sapiens, UniProt P27338); test: Inhibition of MAOB in human platelets at 10 uM
T1 sequence (P27338 whole entry): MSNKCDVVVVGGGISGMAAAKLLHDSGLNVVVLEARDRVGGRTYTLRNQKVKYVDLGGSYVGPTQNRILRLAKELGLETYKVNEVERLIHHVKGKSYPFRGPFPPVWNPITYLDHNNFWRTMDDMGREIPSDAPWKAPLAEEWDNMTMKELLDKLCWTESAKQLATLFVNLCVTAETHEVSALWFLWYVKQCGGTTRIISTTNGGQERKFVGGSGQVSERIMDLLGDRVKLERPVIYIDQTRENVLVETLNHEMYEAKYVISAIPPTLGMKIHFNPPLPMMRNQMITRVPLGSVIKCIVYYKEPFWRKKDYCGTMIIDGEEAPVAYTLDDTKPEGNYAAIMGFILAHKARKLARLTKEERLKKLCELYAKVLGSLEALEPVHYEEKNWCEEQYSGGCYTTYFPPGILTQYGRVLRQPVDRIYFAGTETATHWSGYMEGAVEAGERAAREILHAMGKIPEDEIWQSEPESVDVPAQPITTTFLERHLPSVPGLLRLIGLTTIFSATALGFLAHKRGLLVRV

[7] = molecular target: T2, Phenylethanolamine N-methyltransferase (Bos taurus) (UniProt P10938); test: Inhibition of bovine adrenal medulla phenylethanolamine-N-methyl transferase at 10 uM; format: tissue-based
T2 sequence (whole entry): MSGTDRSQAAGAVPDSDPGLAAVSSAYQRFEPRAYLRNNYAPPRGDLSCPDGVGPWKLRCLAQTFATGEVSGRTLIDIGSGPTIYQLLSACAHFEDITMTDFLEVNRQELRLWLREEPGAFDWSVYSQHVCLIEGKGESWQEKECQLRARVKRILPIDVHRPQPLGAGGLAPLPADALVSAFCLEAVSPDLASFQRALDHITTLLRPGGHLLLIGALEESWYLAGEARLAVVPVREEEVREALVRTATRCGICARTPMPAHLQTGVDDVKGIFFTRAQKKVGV

Rattus norvegicus [8] = organism: Rattus norvegicus; test: Inhibition of rat striatum tyrosine hydroxylase at 10 uM; format: tissue-based
Canis lupus familiaris = organism: Canis lupus familiaris; test: Inhibition of dog kidney (Na+/K+) ATPase at 10 uM
[9] = molecular target: Sodium-dependent noradrenaline transporter (Homo sapiens) (UniProt P23975); test: Displacement of radiolabeled protriptyline from human recombinant NET expressed in CHO cells at 10 uM; format: cell-based
Bos taurus [10] = organism: Bos taurus; test: Inhibition of bovine PDE1 at 10 uM
[11] = molecular target: cGMP-dependent 3',5'-cyclic phosphodiesterase (Homo sapiens) (UniProt O00408); test: Inhibition of PDE2 expressed in differentiated U937 cells at 10 uM; format: cell-based; conditions: U-937
[12] = molecular target: Phosphodiesterase 4 (Homo sapiens) (UniProt P27815+Q08499+Q07343+Q08493); test: Inhibition of PDE4 expressed in U937 cells at 10 uM; format: cell-based; conditions: U-937
[13] = molecular target: Acetylcholinesterase (Homo sapiens) (UniProt P22303); test: Inhibition of human recombinant AChE expressed in HEK293 cells at 10 uM; format: cell-based
[14] = system: Protein kinase C (Rattus norvegicus); test: Inhibition of rat brain PKC at 10 uM
Homo sapiens = organism: Homo sapiens; test: Displacement of radiolabeled ligand from nicotinic acetylcholine receptor at 10 uM
[15] = molecular target: Muscarinic acetylcholine receptor M5 (Rattus norvegicus) (UniProt P08911); test: Displacement of radiolabeled atropine from rat brain muscarinic M5 receptor at 10 uM
[16] = molecular target: Sodium-dependent dopamine transporter (Homo sapiens) (UniProt Q01959); test: Displacement of radiolabeled BTCP from human recombinant DAT expressed in CHO cells at 10 uM; format: cell-based
[17] = molecular target: Sodium-dependent serotonin transporter (Homo sapiens) (UniProt P31645); test: Displacement of radiolabeled Imipramine from human recombinant 5HT transporter expressed in HEK293 cells at 10 uM; format: cell-based
Rattus norvegicus [18] = organism: Rattus norvegicus; test: Displacement of radiolabeled kainic acid from rat cerebral cortex Kainate receptor at 10 uM; format: tissue-based
[19] = molecular target: Adrenergic receptor alpha-1 (Rattus norvegicus) (UniProt P15823+P23944+P43140); test: Displacement of radiolabeled prazosin from adrenergic alpha1 receptor in rat cerebral cortex; format: tissue-based
[20] = molecular target: Adrenergic receptor alpha-2 (Rattus norvegicus) (UniProt P22086+P19328+P22909); test: Displacement of radiolabeled yohimbine from adrenergic alpha-2 receptor in rat cerebral cortex; format: tissue-based
[21] = molecular target: Substance-P receptor (Homo sapiens) (UniProt P25103); test: Displacement of radiolabeled [Sar9,Met(O2)11]-SP from NK1 receptor expressed in U373MG cells at 10 uM; format: cell-based; conditions: U-373MG ATCC
Rattus norvegicus [22] = organism: Rattus norvegicus; test: Displacement of radiolabeled naloxone from opiate receptor in rat cerebral cortex; format: tissue-based
[23] = molecular target: Serotonin (5-HT) receptor (Rattus norvegicus) (UniProt P35563+P35365+P32305+P31388+Q9JJ16+P28564+P30994+Q62758+P08909+P14842+P30940+P35364+P19327+P28565); test: Displacement of radiolabeled serotonin from 5-HT receptor in rat cerebral cortex; format: tissue-based
[24] = molecular target: Cannabinoid receptor 1 (Homo sapiens) (UniProt P21554); test: Displacement of radiolabeled WIN-55212-2 from human CB1 receptor expressed in HEK293 cells at 10 uM; format: cell-based
[25] = molecular target: Muscarinic acetylcholine receptor M2 (Rattus norvegicus) (UniProt P10980); test: Displacement of radiolabeled atropine from rat brain muscarinic M2 receptor at 10 uM
[26] = molecular target: Muscarinic acetylcholine receptor M1 (Rattus norvegicus) (UniProt P08482); test: Displacement of radiolabeled atropine from rat brain muscarinic M1 receptor at 10 uM
[27] = molecular target: Muscarinic acetylcholine receptor M3 (Rattus norvegicus) (UniProt P08483); test: Displacement of radiolabeled atropine from rat brain muscarinic M3 receptor at 10 uM
[28] = molecular target: Muscarinic acetylcholine receptor M4 (Rattus norvegicus) (UniProt P08485); test: Displacement of radiolabeled atropine from rat brain muscarinic M4 receptor at 10 uM
Sequence of Muscarinic acetylcholine receptor M4 (Rattus norvegicus) (P08485 whole entry): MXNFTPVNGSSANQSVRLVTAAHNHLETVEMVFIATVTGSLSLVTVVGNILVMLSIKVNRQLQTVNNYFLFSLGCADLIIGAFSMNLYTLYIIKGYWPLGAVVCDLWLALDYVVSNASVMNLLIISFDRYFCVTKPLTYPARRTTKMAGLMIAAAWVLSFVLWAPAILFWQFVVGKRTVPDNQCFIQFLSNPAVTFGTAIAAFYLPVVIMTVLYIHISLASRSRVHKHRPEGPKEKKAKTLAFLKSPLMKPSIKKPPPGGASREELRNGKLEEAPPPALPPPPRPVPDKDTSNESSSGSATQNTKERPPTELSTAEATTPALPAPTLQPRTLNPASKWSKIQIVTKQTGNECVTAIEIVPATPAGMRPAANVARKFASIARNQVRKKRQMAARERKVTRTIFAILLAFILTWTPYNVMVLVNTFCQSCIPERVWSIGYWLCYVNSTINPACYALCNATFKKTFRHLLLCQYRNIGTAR

Sequence of Sodium-dependent noradrenaline transporter (Homo sapiens) (P23975 whole entry): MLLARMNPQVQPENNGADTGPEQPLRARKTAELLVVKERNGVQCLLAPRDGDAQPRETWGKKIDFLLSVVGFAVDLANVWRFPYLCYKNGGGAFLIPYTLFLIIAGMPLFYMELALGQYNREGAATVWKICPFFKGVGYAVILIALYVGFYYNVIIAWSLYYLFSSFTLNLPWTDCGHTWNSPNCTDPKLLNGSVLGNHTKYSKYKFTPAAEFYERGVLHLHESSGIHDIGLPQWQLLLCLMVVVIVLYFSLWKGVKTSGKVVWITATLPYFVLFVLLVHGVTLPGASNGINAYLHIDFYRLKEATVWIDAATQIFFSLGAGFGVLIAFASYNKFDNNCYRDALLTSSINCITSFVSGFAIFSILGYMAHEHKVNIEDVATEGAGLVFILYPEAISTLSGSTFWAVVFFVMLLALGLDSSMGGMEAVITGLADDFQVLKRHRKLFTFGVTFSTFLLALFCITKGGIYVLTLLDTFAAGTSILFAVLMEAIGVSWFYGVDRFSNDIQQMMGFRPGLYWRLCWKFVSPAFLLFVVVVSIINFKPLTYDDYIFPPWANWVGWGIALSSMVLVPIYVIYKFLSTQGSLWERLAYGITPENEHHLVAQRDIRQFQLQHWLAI
Sequence of 4-aminobutyrate aminotransferase, mitochondrial (Rattus norvegicus) (P50554 28-500 limits assumed): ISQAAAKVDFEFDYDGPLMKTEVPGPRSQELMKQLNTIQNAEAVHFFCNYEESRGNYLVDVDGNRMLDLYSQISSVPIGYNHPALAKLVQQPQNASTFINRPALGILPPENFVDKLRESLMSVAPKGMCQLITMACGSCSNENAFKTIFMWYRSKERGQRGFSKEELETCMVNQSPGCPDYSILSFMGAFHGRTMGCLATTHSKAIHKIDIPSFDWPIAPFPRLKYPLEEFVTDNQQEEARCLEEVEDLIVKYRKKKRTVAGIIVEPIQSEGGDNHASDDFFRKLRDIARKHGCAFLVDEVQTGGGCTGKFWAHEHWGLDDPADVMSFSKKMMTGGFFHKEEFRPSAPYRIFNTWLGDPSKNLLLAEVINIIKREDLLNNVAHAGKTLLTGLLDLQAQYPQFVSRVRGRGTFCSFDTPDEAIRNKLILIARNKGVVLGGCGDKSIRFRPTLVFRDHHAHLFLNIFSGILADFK
Sequence of cGMP-dependent 3',5'-cyclic phosphodiesterase (Homo sapiens) (O00408 whole entry): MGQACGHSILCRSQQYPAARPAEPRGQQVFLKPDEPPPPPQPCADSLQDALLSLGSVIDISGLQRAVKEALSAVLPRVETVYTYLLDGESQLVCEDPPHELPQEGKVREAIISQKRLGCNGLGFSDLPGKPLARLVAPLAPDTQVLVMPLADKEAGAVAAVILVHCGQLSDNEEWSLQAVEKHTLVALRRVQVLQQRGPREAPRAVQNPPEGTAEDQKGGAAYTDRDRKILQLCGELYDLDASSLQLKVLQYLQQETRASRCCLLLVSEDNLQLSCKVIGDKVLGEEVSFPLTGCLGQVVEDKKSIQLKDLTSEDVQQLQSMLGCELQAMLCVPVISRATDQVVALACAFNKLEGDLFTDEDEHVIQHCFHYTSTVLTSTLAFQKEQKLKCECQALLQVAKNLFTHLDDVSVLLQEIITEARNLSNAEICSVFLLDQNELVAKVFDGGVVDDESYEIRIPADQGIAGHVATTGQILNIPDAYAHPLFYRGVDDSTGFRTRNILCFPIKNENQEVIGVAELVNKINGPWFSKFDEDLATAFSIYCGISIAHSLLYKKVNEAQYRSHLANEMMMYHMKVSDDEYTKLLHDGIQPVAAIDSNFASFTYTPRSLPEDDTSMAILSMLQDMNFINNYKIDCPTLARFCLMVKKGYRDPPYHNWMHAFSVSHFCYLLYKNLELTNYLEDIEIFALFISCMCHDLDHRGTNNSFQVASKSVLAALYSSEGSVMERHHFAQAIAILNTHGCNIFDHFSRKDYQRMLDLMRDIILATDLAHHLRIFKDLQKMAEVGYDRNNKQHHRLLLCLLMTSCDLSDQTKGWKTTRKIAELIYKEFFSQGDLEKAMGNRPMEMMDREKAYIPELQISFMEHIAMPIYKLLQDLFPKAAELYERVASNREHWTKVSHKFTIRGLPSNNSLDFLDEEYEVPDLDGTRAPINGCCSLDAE
Sequence of Acetylcholinesterase (Homo sapiens) (P22303 whole entry): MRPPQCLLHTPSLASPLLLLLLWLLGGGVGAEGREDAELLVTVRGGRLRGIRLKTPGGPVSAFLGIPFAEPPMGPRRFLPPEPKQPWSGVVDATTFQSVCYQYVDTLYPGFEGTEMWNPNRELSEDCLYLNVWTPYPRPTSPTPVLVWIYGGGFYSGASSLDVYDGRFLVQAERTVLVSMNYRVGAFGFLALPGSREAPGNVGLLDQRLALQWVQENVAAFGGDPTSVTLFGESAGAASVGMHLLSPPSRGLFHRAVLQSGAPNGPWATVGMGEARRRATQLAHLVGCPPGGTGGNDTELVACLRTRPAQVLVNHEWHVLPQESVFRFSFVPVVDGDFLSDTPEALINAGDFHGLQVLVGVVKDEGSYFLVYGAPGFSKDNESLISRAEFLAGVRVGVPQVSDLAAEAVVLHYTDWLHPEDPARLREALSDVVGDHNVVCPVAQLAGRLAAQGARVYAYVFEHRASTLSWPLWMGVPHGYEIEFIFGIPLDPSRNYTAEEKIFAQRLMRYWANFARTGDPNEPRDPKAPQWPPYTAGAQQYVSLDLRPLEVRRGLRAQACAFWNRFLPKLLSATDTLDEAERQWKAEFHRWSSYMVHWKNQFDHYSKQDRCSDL
Sequence of Muscarinic acetylcholine receptor M3 (Rattus norvegicus) (P08483 whole entry, looked up): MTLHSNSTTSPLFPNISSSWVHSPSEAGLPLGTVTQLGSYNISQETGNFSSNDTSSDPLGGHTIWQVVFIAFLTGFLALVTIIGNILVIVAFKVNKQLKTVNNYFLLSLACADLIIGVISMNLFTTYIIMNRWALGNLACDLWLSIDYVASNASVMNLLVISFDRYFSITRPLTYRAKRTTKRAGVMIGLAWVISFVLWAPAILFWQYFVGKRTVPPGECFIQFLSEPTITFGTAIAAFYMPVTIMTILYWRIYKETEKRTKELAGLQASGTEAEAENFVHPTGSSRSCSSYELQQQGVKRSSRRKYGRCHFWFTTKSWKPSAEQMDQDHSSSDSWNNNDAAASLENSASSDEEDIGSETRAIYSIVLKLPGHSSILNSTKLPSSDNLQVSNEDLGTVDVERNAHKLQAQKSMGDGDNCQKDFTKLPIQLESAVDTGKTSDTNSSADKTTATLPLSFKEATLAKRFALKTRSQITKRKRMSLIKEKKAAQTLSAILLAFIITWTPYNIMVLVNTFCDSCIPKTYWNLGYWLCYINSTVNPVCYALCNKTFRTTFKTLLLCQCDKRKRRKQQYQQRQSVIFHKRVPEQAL
Sequence of Muscarinic acetylcholine receptor M5 (Rattus norvegicus) (P08911 whole entry): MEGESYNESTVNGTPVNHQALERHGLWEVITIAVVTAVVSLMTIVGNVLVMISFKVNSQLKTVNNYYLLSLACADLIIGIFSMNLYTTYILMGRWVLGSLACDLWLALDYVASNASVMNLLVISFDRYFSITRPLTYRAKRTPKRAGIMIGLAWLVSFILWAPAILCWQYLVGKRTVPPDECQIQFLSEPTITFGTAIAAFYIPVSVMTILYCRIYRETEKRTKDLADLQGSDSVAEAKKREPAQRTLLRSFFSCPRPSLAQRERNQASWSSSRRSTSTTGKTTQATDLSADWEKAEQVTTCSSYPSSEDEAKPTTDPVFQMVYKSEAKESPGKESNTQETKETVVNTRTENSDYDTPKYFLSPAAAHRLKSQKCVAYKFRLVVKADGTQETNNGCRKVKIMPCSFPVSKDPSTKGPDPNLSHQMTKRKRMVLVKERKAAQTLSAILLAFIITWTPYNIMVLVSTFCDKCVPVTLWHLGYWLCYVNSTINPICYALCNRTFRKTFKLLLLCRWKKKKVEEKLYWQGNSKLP
Sequence of Muscarinic acetylcholine receptor M1 (Rattus norvegicus) (P08482 whole entry): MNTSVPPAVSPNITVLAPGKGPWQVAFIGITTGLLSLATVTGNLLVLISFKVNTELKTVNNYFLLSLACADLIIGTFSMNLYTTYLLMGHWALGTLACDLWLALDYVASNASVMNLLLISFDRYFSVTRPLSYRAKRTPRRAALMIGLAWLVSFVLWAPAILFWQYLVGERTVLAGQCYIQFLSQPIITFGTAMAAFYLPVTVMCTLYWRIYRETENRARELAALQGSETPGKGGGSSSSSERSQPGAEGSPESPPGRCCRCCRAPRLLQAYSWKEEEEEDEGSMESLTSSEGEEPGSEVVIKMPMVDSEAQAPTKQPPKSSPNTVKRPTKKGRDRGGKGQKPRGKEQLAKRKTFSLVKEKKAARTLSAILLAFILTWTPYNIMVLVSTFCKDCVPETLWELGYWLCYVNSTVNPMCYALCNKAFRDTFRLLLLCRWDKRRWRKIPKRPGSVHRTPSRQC

Structure (SMILES)	Activity [1]	Activity [2]	Activity (Rattus norvegicus [3])	Activity (Bos taurus [4])	Activity (Sus scrofa)	Activity [5]	Activity [6]	Activity [7]	Activity (Rattus norvegicus [8])	Activity (Canis lupus familiaris)	Activity (Bos taurus [10])	Activity [11]	Activity [12]	Activity [13]	Activity [14]	also measured
Nc1ccc(-c2ccoc2)cc1	inactive	inactive	inactive	inactive	inactive	inactive	Not Active	inactive	inactive	inactive	inactive	inactive	inactive	inactive	inactive	inhibition [9]: 77%
O=C(O)CCC(=O)Nc1ccc(-c2ccoc2)cc1	inactive	inactive	inactive	inactive	inactive	inactive	Not Active	inactive	inactive	inactive	inactive	inactive	inactive	inactive	inactive	
N#Cc1cccc(CC2CCCNC2=O)c1 (centres undefined)	inactive	inactive	inactive	inactive	inactive	inactive	Not Active	inactive	inactive	inactive	inactive	inactive	inactive	inactive	inactive	
Nc1cccc(-c2ccoc2)c1	inactive	inactive	inactive	inactive	inactive	inactive	Not Active	inactive	inactive	inactive	inactive	inactive	inactive	inactive	inactive	inhibition (Homo sapiens): 42%; inhibition [9]: 80%
N#Cc1cccc(CN2CCCCC2=O)c1	inactive	inactive	inactive	inactive	inactive	inactive	Not Active	inactive	inactive	inactive	inactive	inactive	inactive	inactive	inactive	
O=C(O)c1ccccc1C1CCCNC1 (centres undefined)	inactive	inactive	inactive	inactive	inactive	inactive	Not Active	inactive	inactive	inactive	inactive	inactive	inactive	inactive	inactive	Activity [15]: inactive; Activity (Homo sapiens): inactive; Activity [9]: inactive; Activity [16]: inactive; Activity [17]: inactive; Activity (Rattus norvegicus [18]): inactive; Activity [19]: inactive; Activity [20]: inactive; Activity [21]: inactive; Activity (Rattus norvegicus [22]): inactive; Activity [23]: inactive; Activity [24]: inactive; Activity [25]: inactive; Activity [26]: inactive; Activity [27]: inactive; Activity [28]: inactive
OCc1ccccc1C1CCCNC1 (centres undefined)	inactive	inactive	inactive	inactive	inactive	inactive	Not Active	inactive	inactive	inactive	inactive	inactive	inactive	inactive	inactive	inhibition (Homo sapiens): 45%; inhibition ([19]; concentration not given here): 47%; inhibition ([20]; concentration not given here): 62%; inhibition (Rattus norvegicus [22]; concentration not given here): 35%; inhibition ([23]; concentration not given here): 39%
NCc1cccc(CC2CCCNC2=O)c1 (centres undefined)	inactive	inactive	inactive	inactive	inactive	inactive	Not Active	inactive	inactive	inactive	inactive	inactive	inactive	inactive	inactive	inhibition [15]: 50%; inhibition [25]: 50%; inhibition [26]: 50%; inhibition [27]: 50%; inhibition [28]: 50%
